According to US9610299B2, “Compounds for the treatment of addiction” (Gilead Sciences, Inc., priority 2011, dated 2017):

Tests used:
Type in all cases: in vivo
Male SD rats [1] = test: Rat nicotine self administration, chronic treatment; settings: for inhibition of number of nicotine infusions: vs vehicle
Method: Upon completion of the acute compound of Example 5 treatment study, the same animals were used to test the effect of 7-day chronic oral administration of compound of Example 5 in the nicotine self administration model. Rats were treated orally with compound of Example 5 (5, 10 or 30 mg-eq/kg) or vehicle 1 hr before nicotine self administration session for 7 consecutive days. […] Similar to the acute treatment, the 5 mg-eq/kg dose was ineffective (FIG. 7). […] Animals in nicotine self administration studies had to reach pre defined criteria (e.g. rat strain, minimum number of nicotine infusions, consistent baseline nicotine self administration throughout the study, patent iv catheters, etc.) to be included in analysis.

[2] = test system: male Sprague Dawley (SD) rats; test: Rat cocaine cue reinstatement; settings: for inhibition of cocaine cue-induced reinstatement (lever presses): 1 hr before session, vs vehicle
Method: Training of male Sprague Dawley (SD) rats had 3 separate stages. First, during self administration, animals were trained to lever press for cocaine with presentation of concomitant cues associated with drug delivery. Rats that reached criteria for addiction were included in the study. Afterward, during cue extinction, cocaine-cue dependent behavior was extinguished. Lastly, during cocaine cue reinstatement, the effect of compounds was tested on lever presses upon cue presentation (FIG. 2).
Rats were trained to self administer i.v. cocaine (0.35 mg/kg/injection) daily (Monday to Friday) in standard operant chambers with retractable levers (Coulbourn Instruments, PA). During the daily 2 hr session, rats received a 0.05 ml infusion of 0.35 mg/kg cocaine every time the active lever was pressed. A cue light and tone turned on for 2 sec together with activation of a pump that delivered the cocaine solution. Rats were required to maintain an infusion rate of ≧20+ per day for at least 10 days before being moved to extinction training.
During extinction sessions lever presses no longer produced cocaine infusion and cue light/tone presentation was absent. Rats received a maximum of 15 extinction sessions.
On the next day after reaching extinction criteria, rats were treated orally with vehicle (Formulation 2B: 25% PEG400/5% Vit E TPGS/1% SLS/69% water with 0.5% Methocel) or drug (compound of Example 2 or compound of Example 5) before the cue reinstatement session. Cue reinstatement began with a tone and cue light. This 2 hr session was identical to the self-administration session (cue light and tone present upon active lever press) except that no cocaine was delivered. The number of active lever presses was compared to extinction lever responding. This is considered a measure of reinstatement. The next day, rats were returned to extinction sessions for at least 2 or 3 more sessions. Rats then received a second and last reinstatement session with an opposite treatment to the one received on the first reinstatement session (vehicle or drug treatment). […] The light/tone presentation triggers this response and it is interpreted as a measure of reinstatement even though cocaine is not available.

Male SD rats [3] = test: Rat nicotine self administration, acute treatment; settings: for inhibition of number of nicotine infusions: vs vehicle
Method: Male SD rats were trained to self administer i.v. nicotine (0.03 mg/kg/inj) daily (Monday to Friday) in standard operant chambers with retractable levers (MED Associates, Inc) as previously published (Levin et al., 2003; Levin et al., 2007). During the daily 45 min session, rats received 0.05 ml infusion of 0.03 mg/kg/infusion of nicotine every time the active lever was pressed. A cue light and tone turned on for 0.5 sec together with the activation of a pump that delivered the nicotine solution. Daily sessions were run for at least 10 days before the initiation of drug testing. Solutions of compounds of Example 2 and Example 5 were prepared fresh daily in Formulation 2B: 25% PEG400/5% Vit E TPGS/1% SLS/69% water with 0.5% Methocel) for oral dosing. Compound of Example 2 doses were administered in a counterbalanced design for testing 1 hr before each nicotine session. Every rat received all drug doses and vehicle in a randomly assigned order. The oral drug administrations were made twice per week.
Compound of Example 5 was tested in a study using 4 independent groups. Each group received either oral vehicle or 1 of the 3 doses of compound of Example 5 (5, 10 or 30 mg-eq/kg). […] The 5 mg/kg dose was ineffective.

Compound	development of tolerance to the therapeutic effect (Male SD rats [1]; 7-day chronic oral administration (data not shown))	effect on number of nicotine infusions, in words (Male SD rats [1]; 7-day chronic oral, 5 mg-eq/kg)	inhibition of number of nicotine infusions (Male SD rats [1]; 7-day chronic oral, 10 mg-eq/kg) [%]	inhibition of number of nicotine infusions (Male SD rats [1]; 7-day chronic oral, 30 mg-eq/kg) [%]	inhibition of cocaine cue-induced reinstatement (lever presses) ([2]; 2.5 mg-eq/kg oral) [%]	effect on cocaine cue reinstatement, in words ([2]; 2.5 mg-eq/kg oral, lowest dose tested)	inhibition of cocaine cue-induced reinstatement (lever presses) ([2]; 5 mg-eq/kg oral) [%]	inhibition of cocaine cue-induced reinstatement (lever presses) ([2]; 10 mg-eq/kg oral) [%]	inhibition of cocaine cue-induced reinstatement (lever presses) ([2]; 30 mg-eq/kg oral) [%]	effect on number of nicotine infusions, in words (Male SD rats [3]; 5 mg-eq/kg oral, independent groups)	inhibition of number of nicotine infusions (Male SD rats [3]; 10 mg-eq/kg oral, independent groups) [%]	inhibition of number of nicotine infusions (Male SD rats [3]; 30 mg-eq/kg oral, independent groups) [%]	effect on number of nicotine infusions, in words (Male SD rats [3]; 1 mg/kg oral)	effect on number of nicotine infusions, in words (Male SD rats [3]; 5 mg/kg oral)
O=C(NCc1ccc(-c2ccn(COP(=O)(O)O)c(=O)c2)cc1)c1c(Cl)cccc1Cl [Compound 14, phosphoric acid mono-(4-{4-[(2,6-dichloro-benzoylamino)-methyl]-phenyl}-2-oxo-2H-pyridin-1-ylmethyl) ester]	no development of tolerance	ineffective	48	62	30	not significantly different from vehicle	59	55	50	ineffective	51	68		
O=C(NCc1ccc(-c2cc[nH]c(=O)c2)cc1)c1c(Cl)cccc1Cl [Compound 2, 2,6-dichloro-N-[4-(2-oxo-1,2-dihydro-pyridin-4-yl)-benzyl]-benzamide]													without effect	without effect
